{
  "source": "the supplement of paper PMC10307832",
  "test_in_all_cases": "relative viability (nuclei count vs DMSO), 5 days (fraction); higher = more cells survive",
  "key": {"Nelarabine + Olaparib": {"compound": "COc1nc(N)nc2c1ncn2[C@@H]1O[C@H](CO)[C@@H](O)[C@@H]1O [Nelarabine] + O=C(c1cc(Cc2n[nH]c(=O)c3ccccc23)ccc1F)N1CCN(C(=O)C2CC2)CC1 [Olaparib] (partner 8 µM)", "how_it_was_run": "(§1)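 Lung cancer cell lines in 1536-well plates were dosed by pin tool the day after seeding, either with one drug alone or with a fixed anchor-drug dose plus five library-drug doses (not always all listed) in √10 steps. After 5 days, cells were fixed and their nuclei stained in one step (final 0.05% Triton X-100, 1% formaldehyde, 1 ug/ml Hoechst), then counted on 4× images. Relative viability is the nuclei count in treated wells divided by that in vehicle wells. Values are medians of duplicate plates.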"}, "Nelarabine + Pictilisib": {"compound": "COc1nc(N)nc2c1ncn2[C@@H]1O[C@H](CO)[C@@H](O)[C@@H]1O [Nelarabine] + CS(=O)(=O)N1CCN(Cc2cc3nc(-c4cccc5[nH]ncc45)nc(N4CCOCC4)c3s2)CC1 [Pictilisib] (partner 1 µM)", "how_it_was_run": "as §1"}, "Adavosertib + Foretinib": {"compound": "C=CCn1c(=O)c2cnc(Nc3ccc(N4CCN(C)CC4)cc3)nc2n1-c1cccc(C(C)(C)O)n1 [Adavosertib] + COc1cc2c(Oc3ccc(NC(=O)C4(C(=O)Nc5ccc(F)cc5)CC4)cc3F)ccnc2cc1OCCCN1CCOCC1 [Foretinib] (partner 0.25 µM)", "how_it_was_run": "as §1"}, "Adavosertib + AZD7762": {"compound": "C=CCn1c(=O)c2cnc(Nc3ccc(N4CCN(C)CC4)cc3)nc2n1-c1cccc(C(C)(C)O)n1 [Adavosertib] + NC(=O)Nc1cc(-c2cccc(F)c2)sc1C(=O)N[C@H]1CCCNC1 [AZD7762] (partner 0.2 µM)", "how_it_was_run": "as §1"}},
  "data": [
    {"cell line": "EMC-BAC-2", "values": [
      {"measurement": "relative viability", "setting": "Nelarabine + Olaparib; first compound 0.01 µM", "value": 0.538},
      {"measurement": "relative viability", "setting": "Nelarabine + Olaparib; first compound 0.03162 µM", "value": 0.432},
      {"measurement": "relative viability", "setting": "Nelarabine + Olaparib; first compound 0.1 µM", "value": 0.486},
      {"measurement": "relative viability", "setting": "Nelarabine + Olaparib; first compound 0.3162 µM", "value": 0.529},
      {"measurement": "relative viability", "setting": "Nelarabine + Olaparib; first compound 1 µM", "value": 0.553},
      {"measurement": "relative viability", "setting": "Nelarabine + Pictilisib; first compound 0.01 µM", "value": 0.548},
      {"measurement": "relative viability", "setting": "Nelarabine + Pictilisib; first compound 0.03162 µM", "value": 0.544},
      {"measurement": "relative viability", "setting": "Nelarabine + Pictilisib; first compound 0.1 µM", "value": 0.543},
      {"measurement": "relative viability", "setting": "Nelarabine + Pictilisib; first compound 0.3162 µM", "value": 0.558},
      {"measurement": "relative viability", "setting": "Nelarabine + Pictilisib; first compound 1 µM", "value": 0.542},
      {"measurement": "relative viability", "setting": "Adavosertib + Foretinib; first compound 0.01 µM", "value": 1.08},
      {"measurement": "relative viability", "setting": "Adavosertib + Foretinib; first compound 0.03162 µM", "value": 1.01},
      {"measurement": "relative viability", "setting": "Adavosertib + Foretinib; first compound 0.1 µM", "value": 0.995},
      {"measurement": "relative viability", "setting": "Adavosertib + Foretinib; first compound 0.3162 µM", "value": 0.949},
      {"measurement": "relative viability", "setting": "Adavosertib + AZD7762; first compound 0.03162 µM", "value": 1.15},
      {"measurement": "relative viability", "setting": "Adavosertib + AZD7762; first compound 0.1 µM", "value": 0.887},
      {"measurement": "relative viability", "setting": "Adavosertib + AZD7762; first compound 0.3162 µM", "value": 1.06}
    ]}
  ]
}
